Reference: US20200215085A1, “Method to Abate Acute Airway Hypersensitivity and Asthma Attacks” (UTI Limited Partnership, priority 2017, published 2020)
“Also recorded” adds a separate entry of the source.

Experiments:
carotid body [1] = assay: en bloc perfused carotid body preparation: carotid sinus nerve response to LPA; set-up: species or system Sprague-Dawley rats; conditions: for reduction of 5 μM LPA-mediated carotid sinus nerve excitation: 5 μM LPA (18:1), AMG9810 10 μM, BrP-LPA 1.5 μM, Ki16425 5 μM, mean±sem; for effect of LPAr blockade on carotid sinus nerve response to LPA (5 μM): BrP-LPA 1.5 μM or Ki16425 5 μM, FIGS. 2A-2B; for en bloc carotid body's response to LPA blocked: en bloc preparation
OVA-sensitized rats = assay: bradykinin-induced bronchoconstriction (RL, Flexivent) in anesthetized ovalbumin-sensitized rats; type: in vivo, Brown Norway rats; conditions: nebulized 0.4 mg bradykinin at 1, 10, 20 min, antagonists iv (BrP-LPA 3 mg/kg, Ki16425 5 mg/kg, AMG9810 10 μM/kg)
Experimental: In order to examine the involvement of LPA-induced carotid body activity on airway resistance in response to bradykinin nebulization, alfaxan-anesthetized animals and the Flexivent system were used. These experiments were performed with a number of acute interventions affecting the proposed pathway, including vagotomy, carotid body denervation, and TRPV1 and/or LPA receptor blockade. Prior to bradykinin, these interventions had no effect on airway resistance (Holm-S̆idák post hoc test comparing asthma control vs any manipulation group: p>0.06) and as expected, bradykinin had no effect on non-asthmatic lungs (p>0.3). However, the acute bronchoconstriction induced by bradykinin in asthmatic lungs was diminished by at least 60% with all interventions (FIG. 4B). The loss of bradykinin-induced bronchoconstriction also occurred in chronic carotid body denervated, but not sham rats (data not shown).
Brown Norway rats (80-120 g) were sensitized to ovalbumin (1 mg) with pertussis toxin (0.5 ng) and aluminum hydroxide as adjuvant (0.15 g) dissolved in saline (1 ml ip; OVA sensitized), or saline (1 ml ip; Naïve) for three consecutive days (Days 1, 2, and 3) and challenged with aerosolized 5% ovalbumin (OVA, dissolved in 0.9% saline) or saline (Naïve) on days 15, 18 and 21 for 10 min. All anaesthetized experiments conducted on OVA and Naïve rats were conducted ˜7 days (day 28) following the last aerosol exposure. […]
OVA Cohort 1 (n=26): To determine the effect of bradykinin and OVA-sensitization on airway resistance (RL) OVA-sensitization (day 28) and naïve rats were anesthetized with isoflurane (5%, balance O2) and instrumented for surgery. […] Data were analyzed with two-way repeated measures ANOVA (time×group). […] Airway mechanics were measured in response to bradykinin nebulizations (as in Cohort 1). Heart rate was attained from the blood pressure waveform, SaO2 was monitored from a pulse oximeter (Kent Scientific, Torrington Conn.) and blood gases were analyzed from 0.1 ml arterial samples drawn before and after bradykinin with a blood gas analyzer (Element POC, Heska Barrie, ON). […]

carotid body [2] = assay: in situ dual-perfused preparation: phrenic and vagal nerve discharge after LPA to the carotid body circulation; set-up: species or system Sprague-Dawley rats; conditions: carotid bodies intact
glomus cells = assay: Fura 2 calcium imaging of carotid body type I (glomus) cells; type: cell-based, Sprague-Dawley rats; conditions: LPA 5 μM
Experimental: Sprague-Dawley rats (80-150 g, P21-28) were anaesthetised with isoflurane (3-5% in O2) and carotid bodies were harvested and digested in 0.4 mg ml^−1 collagenase type I (Worthington Biochemical Corporation, Lakewood, N.J.) and 0.2 mg ml^−1 trypsin type I (Sigma-Aldrich, St. Catherines, QC) in DPBS enzyme solution with low CaCl2) (86 μM) and MgCl2 (350 μM), for 20 min at 37° C. followed by dissociation with forceps and incubated for an additional 7 min. The tissue was centrifuged (115 g) for 3 min, supernatant removed and the pellet re-suspended in Ham's F12 (Sigma-Aldrich, St. Catherines, QC) supplemented with 10% heat inactivated fetal bovine serum (Biowest, San Marcos, Tex.). Cells were released by trituration with fire polished silanised Pasteur pipettes (Sigma-Aldrich, St. Catherines, QC). […]
Type I cells were loaded with 5 μM FURA-2AM (Invitrogen, Carlsbad Calif.) in serum free Ham's F12 nutrient media for 30 min at room temperature in humidified 5% CO2, 10% O2, before being transferred to FURA-2AM-free media in the same conditions for 20 min. […] The FURA-2 loaded cells were excited by 50 ms exposures to 340/380 nm light using a Lambda 10-3 filter wheel every 5 s and emitted light was recorded at 510 nm using a Coolsnap HQ2 CCD camera (Photometrics, Tucson Ariz.). […]

asthmatic rats = assay: airway resistance after nebulized LPA in asthmatic rats (Cohort 5); type: in vivo, rat; conditions: nebulized LPA 5 μM
naïve Brown Norway rats = assay: airway resistance after intravenous bolus in naïve anesthetized ventilated rats (Flexivent); type: in vivo; conditions: naïve rats with intact CSN; 0.5 ml bolus, 5 μM LPA or 6 μM NaCN

Compound | reduction of 5 μM LPA-mediated carotid sinus nerve excitation (carotid body [1]) | effect of LPAr blockade on carotid sinus nerve response to LPA (5 μM) (carotid body [1]) | en bloc carotid body's response to LPA blocked (carotid body [1]) | effect on bradykinin-induced increase in RL compared to OVA (OVA-sensitized rats) | phrenic nerve burst amplitude (carotid body [2]; LPA 5 μM delivered to the CB circulation, baseline 1±0.5) | phrenic nerve burst rate (carotid body [2]; LPA 5 μM delivered to the CB circulation, baseline 1.2±0.8) | phrenic and vagal nerve efferent discharge (carotid body [2]; bolus of 5 μM LPA) | intracellular calcium in glomus cells (glomus cells) | immediate effect of nebulized LPA on airway resistance (asthmatic rats) | airway resistance after 30 min of nebulized LPA (asthmatic rats; abolished by carotid body denervation) | airway resistance (naïve Brown Norway rats) | LPA response remaining after BrP-LPA or Ki16425 blockade, on subsequent application of AMG9810 (carotid body [1]; AMG9810 10 μM added after LPAr blockade (dual block), LPA 5 μM)
Cc1noc(-c2ccc(CSCCC(=O)O)cc2)c1NC(=O)OC(C)c1ccccc1Cl (stereo not drawn) [Ki16425, 3-(4-[4-([1-(2-chlorophenyl)ethoxy]carbonylamino)-3-methyl-5-isoxazolyl]benzylsulfanyl) propanoic acid] | 61±9% | diminishes the response to LPA | Approximately 70% | abolished the effects of bradykinin |  |  |  |  |  |  |  | 
CCCCCCCCCCCCCCCC(=O)OC[C@@H](O)CC(Br)P(=O)(O)O (stereo partly drawn) [BrP-LPA, [(3S)-1-bromo-4-hexadecanoyloxy-3-hydroxybutyl]phosphonic acid] | 70±3% | diminishes the response to LPA | Approximately 70% | abolished the effects of bradykinin |  |  |  |  |  |  |  | 
Oleoyl-Lysophosphatidic acid [LPA] |  |  |  |  | 2.5±0.5 normalized units | 20.8±2.9 burst·min^−1 | increases | increased intracellular calcium release | no immediate effect | increase in airway resistance | increased airway resistance | 
CC(C)(C)c1ccc(/C=C/C(=O)Nc2ccc3c(c2)OCCO3)cc1 [AMG9810, (2E)-N-(2,3-Dihydro-1,4-benzodioxin-6-yl)-3-[4-(1,1-dimethylethyl)phenyl]-2-propenamide] | 41±6% |  |  | abolished the effects of bradykinin |  |  |  |  |  |  |  | blocks the LPA response; also recorded: almost abolished
